Key:
Assay type in all cases: cell-based
human TLR9 = target: T1, human TLR9 (Homo sapiens, UniProt Q9NR96); assay: TLR9 inhibition reporter assay (HEK-Blue cells, SEAP reporter, ODN2006 stimulation); conditions: HEK-Blue cells overexpressing human TLR9, SEAP reporter, ODN2006 5 nM
T1 construct: host or cells: HEK-Blue cells
T1 sequence (Q9NR96 26-1032): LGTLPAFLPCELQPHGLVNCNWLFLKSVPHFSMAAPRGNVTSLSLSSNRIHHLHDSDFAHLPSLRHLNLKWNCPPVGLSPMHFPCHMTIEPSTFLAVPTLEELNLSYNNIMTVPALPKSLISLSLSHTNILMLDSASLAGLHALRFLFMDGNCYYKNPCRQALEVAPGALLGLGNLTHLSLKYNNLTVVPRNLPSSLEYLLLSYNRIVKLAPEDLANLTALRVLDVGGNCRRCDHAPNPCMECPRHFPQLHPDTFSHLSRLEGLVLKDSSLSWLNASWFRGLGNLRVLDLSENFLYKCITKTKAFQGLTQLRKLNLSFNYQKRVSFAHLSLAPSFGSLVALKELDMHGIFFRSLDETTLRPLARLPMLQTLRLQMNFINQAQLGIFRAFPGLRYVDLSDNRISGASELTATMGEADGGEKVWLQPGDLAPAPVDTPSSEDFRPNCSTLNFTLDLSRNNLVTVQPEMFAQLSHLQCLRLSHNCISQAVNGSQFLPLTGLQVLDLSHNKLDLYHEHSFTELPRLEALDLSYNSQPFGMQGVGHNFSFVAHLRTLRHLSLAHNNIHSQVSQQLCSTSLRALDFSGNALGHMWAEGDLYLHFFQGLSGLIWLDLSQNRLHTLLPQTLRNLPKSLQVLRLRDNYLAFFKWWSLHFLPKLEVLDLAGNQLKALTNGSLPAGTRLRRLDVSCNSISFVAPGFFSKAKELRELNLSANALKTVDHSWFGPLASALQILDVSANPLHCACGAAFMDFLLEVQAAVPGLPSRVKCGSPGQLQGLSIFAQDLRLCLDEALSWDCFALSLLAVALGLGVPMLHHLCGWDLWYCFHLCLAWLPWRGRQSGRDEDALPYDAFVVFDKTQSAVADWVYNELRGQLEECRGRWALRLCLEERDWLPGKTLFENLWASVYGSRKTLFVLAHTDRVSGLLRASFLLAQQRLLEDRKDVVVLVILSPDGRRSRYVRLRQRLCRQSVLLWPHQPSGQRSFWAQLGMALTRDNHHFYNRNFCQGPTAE
Procedure, shortened: (§1)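 Dose–response from 0.05 nM to 50 μM was run in HEK-Blue human TLR7, TLR8 and TLR9 reporter cells. After 30 min at room temperature with compound, ligand was added (TLR7 gardiquimod 7.5 μM; TLR8 R848 15.9 μM; TLR9 ODN2006 5 nM) and SEAP measured next day, at 22 h.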

human TLR7 = target: T2, human TLR7 (Homo sapiens, UniProt Q9NYK1); assay: TLR7 inhibition reporter assay (HEK-Blue cells, SEAP reporter, gardiquimod stimulation); conditions: HEK-Blue cells overexpressing human TLR7, SEAP reporter, gardiquimod 7.5 μM; read-out: TLR7 IC50
T2 construct: host or cells: HEK-Blue cells
T2 sequence (Q9NYK1 27-1049): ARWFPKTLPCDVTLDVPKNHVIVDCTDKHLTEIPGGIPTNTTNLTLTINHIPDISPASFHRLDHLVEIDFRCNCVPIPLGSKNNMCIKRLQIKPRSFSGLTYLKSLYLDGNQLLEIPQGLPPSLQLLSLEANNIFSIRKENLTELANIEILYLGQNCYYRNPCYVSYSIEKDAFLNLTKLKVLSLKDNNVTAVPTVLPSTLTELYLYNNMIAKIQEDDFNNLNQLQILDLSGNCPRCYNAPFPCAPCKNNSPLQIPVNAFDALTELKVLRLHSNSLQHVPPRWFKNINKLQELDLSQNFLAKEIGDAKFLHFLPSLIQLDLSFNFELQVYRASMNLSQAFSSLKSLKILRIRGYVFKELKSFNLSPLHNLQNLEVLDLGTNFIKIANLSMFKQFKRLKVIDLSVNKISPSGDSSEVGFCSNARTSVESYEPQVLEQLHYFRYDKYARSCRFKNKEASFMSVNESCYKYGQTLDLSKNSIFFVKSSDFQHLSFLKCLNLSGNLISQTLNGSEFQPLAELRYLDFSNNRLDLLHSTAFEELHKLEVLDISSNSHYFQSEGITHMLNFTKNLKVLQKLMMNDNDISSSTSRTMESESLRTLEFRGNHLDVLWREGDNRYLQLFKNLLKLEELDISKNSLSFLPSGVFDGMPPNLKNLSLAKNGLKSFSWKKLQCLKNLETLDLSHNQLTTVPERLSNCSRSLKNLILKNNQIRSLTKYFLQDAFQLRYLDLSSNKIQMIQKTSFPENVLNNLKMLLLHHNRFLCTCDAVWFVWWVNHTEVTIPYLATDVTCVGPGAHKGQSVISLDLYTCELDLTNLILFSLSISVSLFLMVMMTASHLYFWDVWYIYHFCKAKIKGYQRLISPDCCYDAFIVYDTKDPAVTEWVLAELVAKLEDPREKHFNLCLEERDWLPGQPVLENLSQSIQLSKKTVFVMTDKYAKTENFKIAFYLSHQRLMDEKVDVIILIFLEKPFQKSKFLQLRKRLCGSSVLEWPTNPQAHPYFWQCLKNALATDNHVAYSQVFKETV
Procedure, shortened: as §1

human TLR8 = target: T3, human TLR8 (Homo sapiens, UniProt Q9NR97); assay: TLR8 inhibition reporter assay (HEK-Blue cells, SEAP reporter, R848 stimulation); conditions: HEK-Blue cells overexpressing human TLR8, SEAP reporter, R848 15.9 μM; read-out: TLR8 IC50
T3 construct: host or cells: HEK-Blue cells
T3 sequence (Q9NR97 27-1041): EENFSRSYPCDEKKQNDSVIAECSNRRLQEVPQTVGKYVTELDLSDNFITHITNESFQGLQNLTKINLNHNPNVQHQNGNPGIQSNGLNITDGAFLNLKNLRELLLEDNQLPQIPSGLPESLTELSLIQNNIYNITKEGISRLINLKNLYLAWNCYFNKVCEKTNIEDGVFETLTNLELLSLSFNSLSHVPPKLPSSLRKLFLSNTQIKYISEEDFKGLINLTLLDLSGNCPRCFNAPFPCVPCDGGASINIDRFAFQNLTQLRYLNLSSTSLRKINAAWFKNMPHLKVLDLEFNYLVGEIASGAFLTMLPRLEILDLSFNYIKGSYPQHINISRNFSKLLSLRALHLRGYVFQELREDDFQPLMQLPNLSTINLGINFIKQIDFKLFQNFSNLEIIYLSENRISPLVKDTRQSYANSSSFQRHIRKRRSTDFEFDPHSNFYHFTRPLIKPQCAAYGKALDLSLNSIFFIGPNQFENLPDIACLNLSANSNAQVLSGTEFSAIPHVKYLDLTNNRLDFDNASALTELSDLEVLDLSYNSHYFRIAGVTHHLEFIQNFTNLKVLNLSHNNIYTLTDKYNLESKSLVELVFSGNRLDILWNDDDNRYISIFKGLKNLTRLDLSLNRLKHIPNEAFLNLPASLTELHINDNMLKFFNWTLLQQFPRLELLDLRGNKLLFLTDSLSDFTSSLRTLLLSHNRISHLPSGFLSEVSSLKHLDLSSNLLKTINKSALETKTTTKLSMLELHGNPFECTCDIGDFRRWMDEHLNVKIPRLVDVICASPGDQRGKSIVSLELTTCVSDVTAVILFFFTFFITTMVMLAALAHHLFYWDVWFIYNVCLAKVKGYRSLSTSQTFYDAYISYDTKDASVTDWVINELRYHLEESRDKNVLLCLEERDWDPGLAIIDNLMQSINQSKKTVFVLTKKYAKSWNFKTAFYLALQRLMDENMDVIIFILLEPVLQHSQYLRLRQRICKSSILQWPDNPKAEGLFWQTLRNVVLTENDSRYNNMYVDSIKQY
Procedure, shortened: as §1

IC50 (human TLR9) [µM]	IC50 (human TLR7) [nM]	IC50 (human TLR8) [nM]	SMILES
20.3	2.6	15.7	COc1cc(-c2[nH]c3sc(C4CCC(N(C)CC(=O)N(C)C)CC4)nc3c2C(C)C)cn2ncnc12 (single isomer, unassigned) [Example 162, 2-((4-(6-isopropyl-5-(8-methoxy-[1,2,4]triazolo[1,5-a]pyridin-6-yl)-4H-pyrrolo[3,2-d]thiazol-2-yl)cyclohexyl)(methyl)amino)-N,N-dimethylacetamide]
9.4	1.59	20.6	COc1cc(-c2[nH]c3sc(C4CCC(N(C)CC(=O)N(C)C)CC4)nc3c2C(C)C)cn2ncnc12 (single isomer, unassigned) [Example 163, 2-((4-(6-isopropyl-5-(8-methoxy-[1,2,4]triazolo[1,5-a]pyridin-6-yl)-4H-pyrrolo[3,2-d]thiazol-2-yl)cyclohexyl)(methyl)amino)-N,N-dimethylacetamide]
15.6	1.32	4.43	COc1cc(-c2[nH]c3sc(C4CCC(N(C)CCS(C)(=O)=O)CC4)nc3c2C(C)C)cn2ncnc12 (single isomer, unassigned) [Example 164, 4-(6-isopropyl-5-(8-methoxy-[1,2,4]triazolo[1,5-a]pyridin-6-yl)-4H-pyrrolo[3,2-d]thiazol-2-yl)-N-methyl-N-(2-(methylsulfonyl)ethyl) cyclohexan-1-amine]
22.8	1.61	14.4	COc1cc(-c2[nH]c3sc(C4CCC(N(C)CCS(C)(=O)=O)CC4)nc3c2C(C)C)cn2ncnc12 (single isomer, unassigned) [Example 165, 4-(6-isopropyl-5-(8-methoxy-[1,2,4]triazolo[1,5-a]pyridin-6-yl)-4H-pyrrolo[3,2-d]thiazol-2-yl)-N-methyl-N-(2-(methylsulfonyl)ethyl) cyclohexan-1-amine]
0.383	0.88	0.87	COc1cc(-c2[nH]c3sc(C4CCC(NC5CCN(C(C)C)CC5)CC4)nc3c2C(C)C)cn2ncnc12 (single isomer, unassigned) [Example 166, 1-isopropyl-N-(4-(6-isopropyl-5-(8-methoxy-[1,2,4]triazolo[1,5-a]pyridin-6-yl)-4H-pyrrolo[3,2-d]thiazol-2-yl)cyclohexyl)piperidin-4-amine]
1.71	7.37	34.8	COc1cc(-c2[nH]c3sc(C4CCC(NC5CCN(C(C)C)CC5)CC4)nc3c2C(C)C)cn2ncnc12 (single isomer, unassigned) [Example 167, 1-isopropyl-N-(4-(6-isopropyl-5-(8-methoxy-[1,2,4]triazolo[1,5-a]pyridin-6-yl)-4H-pyrrolo[3,2-d]thiazol-2-yl)cyclohexyl)piperidin-4-amine]
> 50	6.58	33.9	COc1cc(-c2[nH]c3sc(C4CCC(NC56CC(C5)C6)CC4)nc3c2C(C)C)cn2ncnc12 (single isomer, unassigned) [Example 168, N-(4-(6-isopropyl-5-(8-methoxy-[1,2,4]triazolo[1,5-a]pyridin-6-yl)-4H-pyrrolo[3,2-d]thiazol-2-yl)cyclohexyl)bicyclo[1.1.1]pentan-1-amine]
9.81	4.17	17	COc1cc(-c2[nH]c3sc(C4CCC(NC56CC(C5)C6)CC4)nc3c2C(C)C)cn2ncnc12 (single isomer, unassigned) [Example 169, N-(4-(6-isopropyl-5-(8-methoxy-[1,2,4]triazolo[1,5-a]pyridin-6-yl)-4H-pyrrolo[3,2-d]thiazol-2-yl)cyclohexyl)bicyclo[1.1.1]pentan-1-amine]
1.76	2.38	4.65	CNCCNC1CCC(c2nc3c(C(C)C)c(-c4cc(OC)c5ncnn5c4)[nH]c3s2)CC1 (single isomer, unassigned) [Example 170, N1-(4-(6-isopropyl-5-(8-methoxy-[1,2,4]triazolo[1,5-a]pyridin-6-yl)-4H-pyrrolo[3,2-d]thiazol-2-yl)cyclohexyl)-N2-methylethane-1,2-diamine]
0.879	0.78	2.21	CNCCNC1CCC(c2nc3c(C(C)C)c(-c4cc(OC)c5ncnn5c4)[nH]c3s2)CC1 (single isomer, unassigned) [Example 171, N1-(4-(6-isopropyl-5-(8-methoxy-[1,2,4]triazolo[1,5-a]pyridin-6-yl)-4H-pyrrolo[3,2-d]thiazol-2-yl)cyclohexyl)-N2-methylethane-1,2-diamine]
14.8	2.84	1.22	CC(C)c1c(-c2cn(C)c3ncccc23)[nH]c2sc(C3CCC(NCC4(C)COC4)CC3)nc12 (single isomer, unassigned) [Example 172, 4-(6-isopropyl-5-(1-methyl-1H-pyrrolo[2,3-b]pyridin-3-yl)-4H-pyrrolo[3,2-d]thiazol-2-yl)-N-((3-methyloxetan-3-yl)methyl)cyclohexan-1-amine]
